Reference: patent publication US20200404919A1, “USE OF HETEROARYL-TRIAZOLE AND HETEROARYL-TETRAZOLE COMPOUNDS AS PESTICIDES IN PLANT PROTECTION” (Bayer Aktiengesellschaft, priority 2018, published 2020)

Assays:
Type in all cases: in vivo
[1] = test system: Phaedon cochleariae; test: Phaedon cochleariae - spray test; conditions: in Brassica rapa, foliar, 168 h, read-out: mortality in %
Method: Phaedon cochleariae—Spray Test
(§1) To produce a suitable preparation of active compound, 1 part by weight of active compound is mixed with the stated amount of solvents and is diluted with water, containing an emulsifier concentration of 1000 ppm, to the desired concentration. Further test concentrations are prepared by dilution with emulsifier containing water.
Chinese cabbage (Brassica pekinensis) leaf disks are sprayed with a preparation of the active ingredient of the desired concentration. Once dry, the leaf disks are infested with mustard beetle larvae (Phaedon cochleariae).
After 7 days mortality in % is determined. 100% means all beetle larvae have been killed and 0% means none of the beetle larvae have been killed.

[2] = test system: Myzus persicae; test: Myzus persicae - oral test; conditions: 120 h, read-out: mortality in %
Method: To produce a suitable preparation of active compound, 1 part by weight of active compound is mixed with the stated amount of solvent, and the concentrate is diluted with water to the desired concentration. 50 μl compound solution is filled in microtiter plates and 150 μl IPL41 insect medium (33%+15% sugar) is added to obtain a total volume of 200 μl per well. Afterwards the plates are sealed with parafilm through which a mixed population of the green peach aphid (Myzus persicae) can suck on the compound preparation.
(§2) After 5 days mortality in % is determined. 100% means all aphids have been killed and 0% means none of the aphids have been killed.

[3] = test system: Aphis gossypii; test: Aphis gossypii - oral test; conditions: 120 h, read-out: mortality in %
Method: Solvent: 100 parts by weight acetone
(§3) To produce a suitable preparation of active compound, 1 part by weight of active compound is mixed with the stated amount of solvent, and the concentrate is diluted with water to the desired concentration.
50 μl compound solution is filled in microtiter plates and 150 μl IPL41 insect medium (33%+15% sugar) is added to obtain a total volume of 200 μl per well. Afterwards the plates are sealed with parafilm through which a mixed population of the cotton aphid (Aphis gossypii) can suck on the compound preparation.
as §2

[4] = test system: Diabrotica balteata; test: Diabrotica balteata - spray test; conditions: 168 h, 160 μg/well, germinated wheat seeds, larvae, after 7 days, read-out: efficacy in %
Method: Diabrotica balteata—Spray Test
as §1, with “solvent,” for “solvents”, “and the concentrate” for “and”
Soaked wheat seeds (Triticum aestivum) are placed in a multiple well plate filled with agar and some water and are incubated for 1 day to germinate (5 seeds per well). The germinated wheat seeds are sprayed with a test solution containing the desired concentration of the active ingredient. Afterwards each unit is infected with 10-20 larvae of the banded cucumber beetle (Diabrotica balteata).
After 7 days efficacy in % is determined. 100% means all the seedlings have grown up like in the untreated, uninfected control; 0% means none of the seedlings have grown.

[5] = test system: Meloidogyne incognita; test: Meloidogyne incognita - test; conditions: 336 h, salad seedlings in sand, after 14 days, read-out: nematicidal activity (percentage of gall formation)
Method: Meloidogyne incognita—Test
Solvent: 125.0 parts by weight of acetone
as §3
Vessels are filled with sand, a solution of the active ingredient, a suspension containing eggs and larvae of the southern root-knot nematode (Meloidogyne incognita) and salad seeds. The salad seeds germinate and the seedlings grow. Galls develop in the roots.
After 14 days the nematicidal activity is determined on the basis of the percentage of gall formation. 100% means no galls were found and 0% means the number of galls found on the roots of the treated plants was equal to that in untreated control plants.

[6] = test system: Nezara viridula; test: Nezara viridula - spray test 1; conditions: in Hordeum vulgare, 96 h, read-out: mortality in %
Method: Nezara viridula—Spray Test 1
as §1, with “solvent,” for “solvents”, “and the concentrate” for “and”
Barley plants (Hordeum vulgare) infested with larvae of the southern green stink bug (Nezara viridula) are sprayed with a test solution containing the desired concentration of the active ingredient.
After 4 days mortality in % is determined. 100% means all the stink bugs have been killed; 0% means none of the stink bugs have been killed.

[7] = test system: Spodoptera frugiperda; test: Spodoptera frugiperda - spray test; conditions: in Zea mays, 168 h, read-out: mortality in %
Method: Spodoptera frugiperda—Spray Test
as §1
Maize (Zea mays) leaf sections are sprayed with a preparation of the active ingredient of the desired concentration. Once dry, the leaf sections are infested with fall armyworm larvae (Spodoptera frugiperda).
After 7 days mortality in % is determined. 100% means all caterpillars have been killed and 0% means none of the caterpillars have been killed.

[8] = test system: Nilaparvata lugens; test: Nilaparvata lugens - spray test 1; conditions: in Oryza sativa, 96 h, read-out: mortality in %, 500 g/ha, rice plants, after 4 days
Method: Nilaparvata lugens—Spray Test 1
as §1
Rice plants (Oryza sativa) are sprayed with a preparation of the active ingredient of the desired concentration and the plants are infested with the brown planthopper (Nilaparvata lugens).
After 4 days mortality in % is determined. 100% means all planthoppers have been killed and 0% means none of the planthoppers have been killed.

[9] = test system: Culex quinquefasciatus; test: Culex test (CULXFAS surface treatment & contact assay); conditions: 30 minutes exposure, 24 hours after contact, read-out: efficacy (mortality in percent); for mortality at 4 mg/m2: surface concentration 4 mg/m^2, glazed tile; for mortality at 20 mg/m2: surface concentration 20 mg/m^2, glazed tile
Method: Culex Test (CULXFAS Surface Treatment & Contact Assay)
Solvent: Acetone+2000 ppm rapeseed oil methyl ester (RME)
(§4) In order to produce a sufficient, active ingredient containing solution it is necessary to solve the test-compound in an acetone/RME solvent mixture. This solution is pipetted onto a glazed tile and after evaporation of the acetone, adult mosquitoes of the species Culex quinquefasciatus (Brown house mosquito) are placed onto the dried surface. The exposure time is 30 minutes.
(§5) Mortality in percent (%) is determined 24 hours after contact to the treated surface. 100% mortality means that all test-insects are dead, whereas 0% means that not a single insect died.

[10] = test system: Aedes aegypti strain MONHEIM; test: Aedes test (AEDSAE surface treatment & contact assay); conditions: 30 minutes exposure, 24 hours after contact, read-out: efficacy (mortality in percent); for mortality at 4 mg/m2: surface concentration 4 mg/m^2, glazed tile; for mortality at 20 mg/m2: surface concentration 20 mg/m^2, glazed tile
Method: Aedes Test (AEDSAE Surface Treatment & Contact Assay)
Solvent: Aceton+2000 ppm rapeseed oil methyl ester (RME)
as §4, with “Aedes aegypti strain MONHEIM” for “Culex quinquefasciatus (Brown house mosquito)”
as §5

[11] = test system: Musca domestica strain WHO-N; test: Musca domestica test (MUSCDO surface treatment & contact assay); conditions: 30 minutes exposure, 24 hours after contact, read-out: efficacy (mortality in percent); for mortality at 4 mg/m2: surface concentration 4 mg/m^2, glazed tile; for mortality at 20 mg/m2: surface concentration 20 mg/m^2, glazed tile
Method: Musca domestica Test (MUSCDO Surface Treatment & Contact Assay)
(§6) Solvent: Aceton+2000 ppm Rapeseed oil methyl ester (RME)
as §4, with “flies” for “mosquitoes”, “Musca domestica strain WHO-N” for “Culex quinquefasciatus (Brown house mosquito)”
as §5

[12] = test system: Blattella germanica strain PAULINIA; test: Blattella germanica test (BLTTGE surface treatment & contact assay); conditions: 30 minutes exposure, 24 hours after contact, read-out: efficacy (mortality in percent); for mortality at 4 mg/m2: surface concentration 4 mg/m^2, glazed tile; for mortality at 20 mg/m2: surface concentration 20 mg/m^2, glazed tile
Method: Blattella germanica Test (BLTTGE Surface Treatment & Contact Assay)
as §6
as §4, with “animals” for “mosquitoes”, “Blattella germanica strain PAULINIA” for “Culex quinquefasciatus (Brown house mosquito)”
as §5

Structure (SMILES) | mortality at 500 g/ha [1] [%] | mortality at 20 ppm [2] [%] | mortality at 100 ppm [3] [%] | pest or weed control at 160 µg/disc, 160 µg/well [4] [%] | pest or weed control at 20 ppm [5] [%] | mortality at 500 g/ha [6] [%] | mortality at 500 g/ha [7] [%] | mortality at 500 g/ha [8] [%] | mortality at 4 mg/m2 [9] [%] | mortality at 20 mg/m2 [9] [%] | mortality at 4 mg/m2 [10] [%] | mortality at 20 mg/m2 [10] [%] | mortality at 4 mg/m2 [11] [%] | mortality at 20 mg/m2 [11] [%] | mortality at 4 mg/m2 [12] [%] | mortality at 20 mg/m2 [12] [%]
CC(c1ncnn1-c1ncccn1)N(CC1CC1)C(=O)c1cccc(C#N)c1 (stereo not drawn) [Compound I-38, 3-cyano-N-(cyclopropylmethyl)-N-[1-(2-pyrimidin-2-yl-1,2,4-triazol-3-yl)ethyl]benzamide] | 100 | 100 | 100 | 100 | 100 | 100 |  |  |  |  |  |  |  |  |  | 
CC(NC(=O)c1cc(C(F)(F)F)cc(C(F)(F)F)c1)c1ncnn1-c1ncccn1 (stereo not drawn) [Compound I-63, N-[1-(2-pyrimidin-2-yl-1,2,4-triazol-3-yl)ethyl]-3,5-bis(trifluoromethyl)benzamide] | 100 | 100 | 100 | 100 |  | 100 | 100 | 100 | 80 to 100 | 80 to 100 | 80 to 100 | 80 to 100 | 80 to 100 | 80 to 100 | 80 to 100 | 80 to 100
Cc1nc(C(C)N(CC2CC2)C(=O)c2cc(Cl)cc(C(F)(F)F)c2)n(-c2ncc(F)cn2)n1 (stereo not drawn) [Compound I-77, 3-chloro-N-(cyclopropylmethyl)-N-[1-[2-(5-fluoropyrimidin-2-yl)-5-methyl-1,2,4-triazol-3-yl]ethyl]-5-(trifluoromethyl)benzamide] | 100 | 100 | 100 | 100 |  | 100 | 100 | 100 | 80 to 100 | 80 to 100 |  | 80 to 100 | 80 to 100 | 80 to 100 |  | 80 to 100
CC(c1ncnn1-c1ncccn1)N(CC1CC1)C(=O)c1cncc(Br)c1 (stereo not drawn) [Compound I-79] | 100 |  |  | 100 | 100 | 90 |  | 100 |  |  |  |  |  |  |  | 
CC(c1ncnn1-c1ncc(Cl)cn1)N(CC1CC1)C(=O)c1cc(Cl)cc(C(F)(F)F)c1 (stereo not drawn) [Compound I-80, 3-chloro-N-[1-[2-(5-chloropyrimidin-2-yl)-1,2,4-triazol-3-yl]ethyl]-N-(cyclopropylmethyl)-5-(trifluoromethyl)benzamide] | 100 | 100 | 100 | 100 | 90 | 100 | 100 |  |  |  |  |  |  |  |  | 
CC(c1ncnn1-c1ncccn1)N(CC(F)F)C(=O)c1cc(Cl)cc(C(F)(F)F)c1 (stereo not drawn) [Compound I-89, 3-chloro-N-(2,2-difluoroethyl)-N-[1-(2-pyrimidin-2-yl-1,2,4-triazol-3-yl)ethyl]-5-(trifluoromethyl)benzamide] | 100 | 100 | 100 | 100 | 100 |  | 100 |  |  |  |  |  |  |  |  | 
CC(c1ncnn1-c1ncccn1)N(CC1CC1)C(=O)c1cccc(Cl)c1 (stereo not drawn) [Compound I-108] | 100 |  |  | 100 | 90 | 100 |  | 100 |  |  |  |  |  |  |  | 
CC(c1ncnn1-c1ncccn1)N(CC1CC1)C(=O)c1ccc(Cl)cc1 (stereo not drawn) [Compound I-109] |  |  |  | 100 | 100 |  |  |  |  |  |  |  |  |  |  | 
CC(c1ncnn1-c1ncccn1)N(CC1CC1)C(=O)c1cc(Cl)c(Cl)c(Cl)c1 (stereo not drawn) [Compound I-111] |  |  |  |  | 90 |  |  |  |  |  |  |  |  |  |  | 
CC(NC(=O)c1cc(Cl)cc(C#N)c1)c1ncnn1-c1ncccn1 (stereo not drawn) [Compound I-114, 3-chloro-5-cyano-N-[1-(2-pyrimidin-2-yl-1,2,4-triazol-3-yl)ethyl]benzamide] | 100 | 100 | 100 | 100 |  | 100 | 100 | 100 | 80 to 100 | 80 to 100 | 80 to 100 | 80 to 100 | 80 to 100 | 80 to 100 | 80 to 100 | 80 to 100
CC(NC(=O)c1cc(Cl)cc(OC(F)(F)F)c1)c1ncnn1-c1ncccn1 (stereo not drawn) [Compound I-119, 3-chloro-N-[1-(2-pyrimidin-2-yl-1,2,4-triazol-3-yl)ethyl]-5-(trifluoromethoxy)benzamide] | 100 | 100 | 100 | 100 |  | 100 | 100 | 100 | 80 to 100 | 80 to 100 | 80 to 100 | 80 to 100 | 80 to 100 | 80 to 100 | 80 to 100 | 80 to 100
